Assays:
Assay in all cases: relative viability (nuclei count vs DMSO), 5 days (fraction); higher = more cells survive
Motesanib + AZD7762 = compound: CC1(C)CNc2cc(NC(=O)c3cccnc3NCc3ccncc3)ccc21 [Motesanib] + NC(=O)Nc1cc(-c2cccc(F)c2)sc1C(=O)N[C@H]1CCCNC1 [AZD7762] (partner 0.2 µM)
How it was run: (§1)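 Nuclei were stained with Hoechst during a one-step fixation (final 0.05% Triton X-100, 1% formaldehyde, 1 ug/ml Hoechst) carried out 5 days after dosing, then counted on 4× images. The cells, lung cancer lines in 1536-well plates, had been dosed by pin tool the day after seeding with one drug alone or a fixed anchor-drug dose plus five library-drug doses (not always all listed) in √10 steps. Relative viability is the nuclei count in treated wells divided by that in vehicle wells, and each value is the median of duplicate plates.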

Motesanib + Palbociclib = compound: CC1(C)CNc2cc(NC(=O)c3cccnc3NCc3ccncc3)ccc21 [Motesanib] + CC(=O)c1c(C)c2cnc(Nc3ccc(N4CCNCC4)cn3)nc2n(C2CCCC2)c1=O [Palbociclib] (partner 0.5 µM)
How it was run: as §1

[1] = compound: C[C@@]1(C(=O)Nc2ccc(F)nc2)CCCN1c1nc(Nc2cc(C3CC3)n[nH]2)c2cccn2n1 + Nc1ncn([C@H]2C[C@H](O)[C@@H](CO)O2)c(=O)n1 [Decitabine] (partner 2 µM)
How it was run: as §1

[2] = compound: C[C@@]1(C(=O)Nc2ccc(F)nc2)CCCN1c1nc(Nc2cc(C3CC3)n[nH]2)c2cccn2n1 + C[C@@H](Oc1cc(-c2cnn(C3CCNCC3)c2)cnc1N)c1c(Cl)ccc(F)c1Cl [Crizotinib] (partner 1 µM)
How it was run: as §1

Cell Line	relative viability (Motesanib + AZD7762; first compound 0.01 µM)	relative viability (Motesanib + AZD7762; first compound 0.03162 µM)	relative viability (Motesanib + AZD7762; first compound 0.1 µM)	relative viability (Motesanib + AZD7762; first compound 0.3162 µM)	relative viability (Motesanib + AZD7762; first compound 1 µM)	relative viability (Motesanib + Palbociclib; first compound 0.01 µM)	relative viability (Motesanib + Palbociclib; first compound 0.03162 µM)	relative viability (Motesanib + Palbociclib; first compound 0.1 µM)	relative viability (Motesanib + Palbociclib; first compound 0.3162 µM)	relative viability (Motesanib + Palbociclib; first compound 1 µM)	relative viability ([1]; first compound 0.04 µM)	relative viability ([1]; first compound 0.1265 µM)	relative viability ([1]; first compound 0.4 µM)	relative viability ([1]; first compound 1.265 µM)	relative viability ([2]; first compound 0.04 µM)	relative viability ([2]; first compound 0.1265 µM)	relative viability ([2]; first compound 0.4 µM)	relative viability ([2]; first compound 1.265 µM)
ABC-1	0.811	1	0.762	0.904	0.846	0.633	0.541	0.7	0.938	0.763	1.01	0.714	0.628	0.785	1.01	0.695	0.7	0.272
NCI-H2170	0.871	0.865	0.82	0.75	0.755	0.397	0.382	0.388	0.377	0.397	0.43	0.489	0.442	0.468	1.09	1.11	1.03	1.27
NCI-H1299															0.963	0.956	0.97	0.96
EBC-1															0.195	0.168	0.211	0.2
NCI-H2347	0.738	0.825	0.749	0.674	0.712	0.452	0.428	0.404	0.469	0.437	0.571	0.574	0.487	0.599	0.706	0.75	0.629	0.569
NCI-H1993	0.788	0.725	0.595	0.676	0.863	0.675	0.622	0.752	0.626	0.553	0.532	0.522	0.486	0.458	0.663		0.64	0.633
NCI-H322M	0.568	0.531	0.53	0.488	0.452	0.486	0.439	0.48	0.508	0.466	0.658	0.533	0.494	0.547	1.04	0.75	0.613	1.15
NCI-H838	0.895	0.872	0.984	1	0.994	0.204	0.203	0.213	0.198	0.241	0.461	0.467	0.395	0.335	0.868	0.67	0.621	0.708
HARA	0.17	0.277	0.48	0.362	0.207	0.281	0.211	0.282	0.253	0.315	0.445	0.436	0.418	0.513	1.02	0.995	1.21	1.1
NCI-H1648	0.496			0.702	0.597	0.305			0.28	0.261	0.465	0.464	0.416	0.361				
COR-L23						0.297	0.26	0.272	0.273	0.32	0.413	0.412	0.315	0.267	0.737	0.653	0.494	0.333
COR-L 105						0.393	0.45	0.401	0.438	0.448	0.697	0.547	0.541	0.588	0.805	0.454	0.5	0.456
NCI-H596	0.973	0.825	1.09	1.01	1.13						1.08	0.977	0.96	0.912	1.05	0.984	0.857	1.06
NCI-H2023						0.365	0.378	0.361	0.385	0.401	0.234	0.228	0.177	0.139	0.467	0.424	0.318	0.119
NCI-H1793	0.41	0.243	0.605	0.514	0.413	0.351	0.306	0.335	0.277	0.334	0.362	0.428	0.429	0.429				
NCI-H520						0.209	0.215	0.235	0.234	0.225	0.498	0.493	0.416	0.491	0.802	0.499	0.618	0.636
A549											0.284	0.248	0.326	0.199	0.52	0.402	0.248	0.089
NCI-H1563															0.829	0.91	0.947	0.828
NCI-H1395	0.387	0.372	0.39	0.405	0.399	0.682	0.602	0.623	0.661	0.661	0.7	0.705	0.653	0.68				
NCI-H2009						0.273	0.246	0.276	0.246	0.264	0.401	0.369	0.406	0.313	1.06	1.01	0.966	0.541
NCI-H522	0.815	0.721	0.864	1	1	1.15	1.01	1	0.84	1.26	0.616	0.607	0.591	0.639				
IA-LM															0.68	0.983	0.646	0.456
SK-LU-1						0.386	0.438	0.44	0.409	0.401	0.672	0.543	0.489	0.524	0.824	0.875	0.715	0.467
NCI-H1703		0.127	0.139	0.13	0.13										0.586	0.535	0.792	
SW 900	0.787	0.786	0.552	0.523	0.726	0.489	0.53	0.56	0.614	0.564	0.403	0.437	0.351	0.349				
